Measurements reported in patent publication US20190388428A1, “A Pharmaceutical Composition Comprising An Oxazine Derivative And Its Use In The Treatment Or Prevention Of Alzheimer's Disease” (NOVARTIS AG, priority 2017, published 2019).

Key:
[1] = Chemical stability of crystalline Compound 1 at high temperature/humidity (UPLC purity); format: physicochemical; conditions: for Purity/%: crystalline material
Source text: After storage at high temperature and/or humidity, bulk crystalline material was sampled and dissolved in acetonitrile:water (80:20) and the purity analysed in a Waters Aquity UPLC using the following conditions: […]

[2] = Off-target binding or activity (background statement)
[3] = Drug-drug interaction study with strong CYP3A4 inhibitor itraconazole in healthy volunteers; format: in vivo, human; conditions: with itraconazole 200 mg q.d. vs Compound 1 alone
Source text: (§1) The DDI study design is outlined in FIG. 10.
(§2) An ANOVA model with fixed effects for treatment and subject was fitted to each log-transformed PK parameter. Results were back transformed to obtain ‘Adjusted geo-mean’, ‘Geo-mean ratio’ and ‘90% Cl’.

[4] = Physical properties of the drug substance (solubility, hygroscopicity, wettability); format: physicochemical
[5] = Drug-drug interaction study with strong CYP3A4 inducer rifampicin in healthy volunteers; format: in vivo, human; conditions: with rifampicin 600 mg q.d. vs Compound 1 alone
Source text: as §1, §2

C[C@@]1(c2nc(NC(=O)c3ncc(C(F)(F)F)cc3Cl)ccc2F)CO[C@@](C)(C(F)(F)F)C(N)=N1 [Compound 1, N-(6-((3R,6R)-5-amino-3,6-dimethyl-6-(trifluoromethyl)-3,6-dihydro-2H-1,4-oxazin-3-yl)-5-fluoropyridin-2-yl)-3-chloro-5-(trifluoromethyl)picolinamide]
Solid State Form ([1]; 50° C./75% RH, 3 weeks): Crystalline
Solid State Form ([1]; 50° C., 4 weeks): Crystalline
Solid State Form ([1]; 80° C., 3 weeks): Crystalline
Solid State Form ([1]; RT, 0 (initial)): Crystalline
Purity/% ([1]; 50° C./75% RH, 3 weeks): 96.8%
Purity/% ([1]; 50° C., 4 weeks): 97.3%
Purity/% ([1]; 80° C., 3 weeks): 97.3%
Purity/% ([1]; RT, 0 (initial)): 97.3%
off-target binding or activity [2]: no relevant off-target binding or activity
increase of mean AUC [3]: 2-3 fold
increase of mean Cmax [3]: 25%
hygroscopicity [4]: non-hygroscopic
wettability [4]: poorly wettable
solubility in water ([4]; water): poorly soluble
decrease of mean AUC [5]: 5-6 fold
decrease of mean Cmax [5]: 2.5 fold
